Reference: US11634447B2 (priority 2012, dated 2023)
pIC50: −log10 of the molar value.

What follows are compounds tested on bacterial strain LF82 binding to the glycoprotein BSA-(Mannose)3 (assay: Bacterial Binding Assay (BBA)). Conditions: read-out: Bacterial Binding Assay IC50, LF82/Luciferase strain binding to BSA-(Man)3 coated plates, luminescence.
Format: cell-based, Escherichia coli
Method in brief: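 Inhibition of LF82/luciferase E. coli adhesion is read as luminescence after washing off unbound cells. Compound and bacteria (10^7 per well) are co-incubated 40-75 min at room temperature on wells coated with 0.5-2 μg/mL BSA-(Man)3, with BSA-only wells as background; IC50 values derived.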

| Compound | pIC50 |
| --- | --- |
| CCn1c2cc(C#C[C@H]3O[C@H](CO)[C@@H](O)[C@H](O)[C@@H]3O)ccc2c2ccc(C#C[C@H]3O[C@H](CO)[C@@H](O)[C@H](O)[C@@H]3O)cc21 [Compound 111, (2R,3S,4R,5S,6R)-2-[2-[9-ethyl-7-[2-[(2R,3S,4R,5S,6R)-3,4,5-trihydroxy-6-(hydroxymethyl)tetrahydropyran-2-yl]ethynyl]carbazol-2-yl]ethynyl]-6-(hydroxymethyl)tetrahydropyran-3,4,5-triol] | 8.68 |
| CN1CCN(CCNC(=O)Cn2c3cc(C#C[C@H]4O[C@H](CO)[C@@H](O)[C@H](O)[C@@H]4O)ccc3c3ccc(C#C[C@H]4O[C@H](CO)[C@@H](O)[C@H](O)[C@@H]4O)cc32)CC1 [Compound 177, 2-[2,7-bis[2-[(2R,3S,4R,5S,6R)-3,4,5-trihydroxy-6-(hydroxymethyl)tetrahydropyran-2-yl]ethynyl]carbazol-9-yl]-N-[2-(4-methylpiperazin-1-yl)ethyl]acetamide] | 9.18 |
| OC[C@H]1O[C@H](C#Cc2ccc(C#C[C@H]3O[C@H](CO)[C@@H](O)[C@H](O)[C@@H]3O)c(Cc3ccccc3)c2)[C@@H](O)[C@@H](O)[C@@H]1O [Compound 158, (2R,3S,4R,5S,6R)-2-[2-[3-benzyl-4-[2-[(2R,3S,4R,5S,6R)-3,4,5-trihydroxy-6-(hydroxymethyl)tetrahydropyran-2-yl]ethynyl]phenyl]ethynyl]-6-(hydroxymethyl)tetrahydropyran-3,4,5-triol] | 7.96 |
| OC[C@H]1O[C@H](C#Cc2ccc3nc(C#C[C@H]4O[C@H](CO)[C@@H](O)[C@H](O)[C@@H]4O)ncc3c2)[C@@H](O)[C@@H](O)[C@@H]1O [Compound 127, (2R,3S,4R,5S,6R)-2-(hydroxymethyl)-6-[2-[2-[2-[(2R,3S,4R,5S,6R)-3,4,5-trihydroxy-6-(hydroxymethyl)tetrahydropyran-2-yl]ethynyl]quinazolin-6-yl]ethynyl]tetrahydropyran-3,4,5-triol] | 7.37 |
| OC[C@H]1O[C@H](C#Cc2cc(F)c(C#C[C@H]3O[C@H](CO)[C@@H](O)[C@H](O)[C@@H]3O)cc2F)[C@@H](O)[C@@H](O)[C@@H]1O [Compound 88, (2R,3S,4R,5S,6R)-2-[2-[2,5-difluoro-4-[2-[(2R,3S,4R,5S,6R)-3,4,5-trihydroxy-6-(hydroxymethyl)tetrahydropyran-2-yl]ethynyl]phenyl]ethynyl]-6-(hydroxymethyl)tetrahydropyran-3,4,5-triol] | 6.88 |
| Cc1cc(-c2cccc(-c3ccc([C@H]4O[C@H](CO)[C@@H](O)[C@H](O)[C@@H]4O)c(C)c3)n2)ccc1[C@H]1O[C@H](CO)[C@@H](O)[C@H](O)[C@@H]1O [Compound 154, (2R,3S,4R,5S,6R)-2-(hydroxymethyl)-6-[2-methyl-4-[6-[3-methyl-4-[(2R,3S,4R,5S,6R)-3,4,5-trihydroxy-6-(hydroxymethyl)tetrahydropyran-2-yl]phenyl]-2-pyridyl]phenyl]tetrahydropyran-3,4,5-triol] | 7.36 |
| O=C(CN1CCOCC1)N1CCC2(CC1)c1cc(C#C[C@H]3O[C@H](CO)[C@@H](O)[C@H](O)[C@@H]3O)ccc1-c1ccc(C#C[C@H]3O[C@H](CO)[C@@H](O)[C@H](O)[C@@H]3O)cc12 [Compound 221, 1-[2,7-bis[2-[(2R,3S,4R,5S,6R)-3,4,5-trihydroxy-6-(hydroxymethyl)tetrahydropyran-2-yl]ethynyl]spiro[fluorene-9,4piperidine]-1l]-2-morpholino-ethanone] | 10.40 |
| CCCn1c2cc(C#C[C@H]3O[C@H](CO)[C@@H](O)[C@H](O)[C@@H]3O)ccc2c2ccc(C#C[C@H]3O[C@H](CO)[C@@H](O)[C@H](O)[C@@H]3O)cc21 [Compound 110, (2R,3S,4R,5S,6R)-2-(hydroxymethyl)-6-[2-[9-propyl-7-[2-[(2R,3S,4R,5S,6R)-3,4,5-trihydroxy-6-(hydroxymethyl)tetrahydropyran-2-yl]ethynyl]carbazol-2-yl]ethynyl]tetrahydropyran-3,4,5-triol] | 9.05 |
| COc1cc(-c2ccc([C@H]3O[C@H](CO)[C@@H](O)[C@H](O)[C@@H]3O)cc2)ccc1[C@H]1O[C@H](CO)[C@@H](O)[C@H](O)[C@@H]1O [Compound 151] | 6.73 |
| CC1(C)c2cc(C#C[C@H]3O[C@H](CO)[C@@H](O)[C@H](O)[C@@H]3O)ccc2-c2ccc(C#C[C@H]3O[C@H](CO)[C@@H](O)[C@H](O)[C@@H]3O)cc21 [Compound 120, (2R,3S,4R,5S,6R)-2-[2-[9,9-dimethyl-7-[2-[(2R,3S,4R,5S,6R)-3,4,5-trihydroxy-6-(hydroxymethyl)tetrahydropyran-2-yl]ethynyl]fluoren-2-yl]ethynyl]-6-(hydroxymethyl)tetrahydropyran-3,4,5-triol] | 8.92 |
| OC[C@H]1O[C@H](C#Cc2ccc(C#C[C@H]3O[C@H](CO)[C@@H](O)[C@H](O)[C@@H]3O)c(F)c2)[C@@H](O)[C@@H](O)[C@@H]1O [Compound 105, (2R,3S,4R,5S,6R)-2-[2-[3-fluoro-4-[2-[(2R,3S,4R,5S,6R)-3,4,5-trihydroxy-6-(hydroxymethyl)tetrahydropyran-2-yl]ethynyl]phenyl]ethynyl]-6-(hydroxymethyl)tetrahydropyran-3,4,5-triol] | 7.34 |
| CN1CCN(C(=O)Cn2c3cc(C#C[C@H]4O[C@H](CO)[C@@H](O)[C@H](O)[C@@H]4O)ccc3c3ccc(C#C[C@H]4O[C@H](CO)[C@@H](O)[C@H](O)[C@@H]4O)cc32)CC1 [Compound 179, 2-[2,7-bis[2-[(2R,3S,4R,5S,6R)-3,4,5-trihydroxy-6-(hydroxymethyl)tetrahydropyran-2-yl]ethynyl]carbazol-9-yl]-1-(4-methylpiperazin-1-yl)ethanone] | 8.15 |
| OC[C@H]1O[C@H](C#Cc2ccc3c(c2)sc2cc(C#C[C@H]4O[C@H](CO)[C@@H](O)[C@H](O)[C@@H]4O)ccc23)[C@@H](O)[C@@H](O)[C@@H]1O [Compound 109, (2R,3S,4R,5S,6R)-2-(hydroxymethyl)-6-[2-[7-[2-[(2R,3S,4R,5S,6R)-3,4,5-trihydroxy-6-(hydroxymethyl)tetrahydropyran-2-yl]ethynyl]dibenzothiophen-3-yl]ethynyl]tetrahydropyran-3,4,5-triol] | 7.70 |
| Cn1ccc(C(=O)c2c(C#C[C@H]3O[C@H](CO)[C@@H](O)[C@H](O)[C@@H]3O)ccc3c2C2(CCNCC2)c2cc(C#C[C@H]4O[C@H](CO)[C@@H](O)[C@H](O)[C@@H]4O)ccc2-3)n1 [Compound 238, [2,7-bis[2-[(2R,3S,4R,5S,6R)-3,4,5-trihydroxy-6-(hydroxymethyl)tetrahydropyran-2-yl]ethynyl]spiro[fluorene-9,4piperidine]-1yl]-(1-methylpyrazol-3-yl)methanone] | 10.05 |
| O=C(CN1CCCC1=O)c1c(C#C[C@H]2O[C@H](CO)[C@@H](O)[C@H](O)[C@@H]2O)ccc2c1C1(CCNCC1)c1cc(C#C[C@H]3O[C@H](CO)[C@@H](O)[C@H](O)[C@@H]3O)ccc1-2 [Compound 241, 1-[2-[2,7-bis[2-[(2R,3S,4R,5S,6R)-3,4,5-trihydroxy-6-(hydroxymethyl)tetrahydropyran-2-yl]ethynyl]spiro[fluorene-9,4piperidine]-1yl]-2-oxo-ethyl]pyrrolidin-2-one] | 10.52 |
| O=C(O)Cn1c2cc(C#C[C@H]3O[C@H](CO)[C@@H](O)[C@H](O)[C@@H]3O)ccc2c2ccc(C#C[C@H]3O[C@H](CO)[C@@H](O)[C@H](O)[C@@H]3O)cc21 [Compound 176, 2-[2,7-Bis[2-[(2R,3S,4R,5S,6R)-3,4,5-trihydroxy-6-(hydroxymethyl)tetrahydropyran-2-yl]ethynyl]carbazol-9-yl]acetic acid] | 8.00 |
| OC[C@H]1O[C@H](C#Cc2ccc(C#C[C@H]3O[C@H](CO)[C@@H](O)[C@H](O)[C@@H]3O)c(OC(F)F)c2)[C@@H](O)[C@@H](O)[C@@H]1O [Compound 92, (2R,3S,4R,5S,6R)-2-[2-[3-(difluoromethoxy)-4-[2-[(2R,3S,4R,5S,6R)-3,4,5-trihydroxy-6-(hydroxymethyl)tetrahydropyran-2-yl]ethynyl]phenyl]ethynyl]-6-(hydroxymethyl)tetrahydropyran-3,4,5-triol] | 7.44 |
| Cc1cc(C2CC2c2ccc([C@H]3O[C@H](CO)[C@@H](O)[C@H](O)[C@@H]3O)cc2)ccc1[C@H]1O[C@H](CO)[C@@H](O)[C@H](O)[C@@H]1O (stereo partly drawn) [Compound 156] | 7.74 |
| Cc1c(C)c(C#C[C@H]2O[C@H](CO)[C@@H](O)[C@H](O)[C@@H]2O)c(C)c(C)c1C#C[C@H]1O[C@H](CO)[C@@H](O)[C@H](O)[C@@H]1O [Compound 84, (2R,3S,4R,5S,6R)-2-(hydroxymethyl)-6-[2-[2,3,5,6-tetramethy1-4-[2-[(2R,3S,4R,5S,6R)-3,4,5-trihydroxy-6-(hydroxymethyl)tetrahydropyran-2-yl]ethynyl]phenyl]ethynyl]tetrahydropyran-3,4,5-triol] | 6.50 |
| COc1cc(C#C[C@H]2O[C@H](CO)[C@@H](O)[C@H](O)[C@@H]2O)ncc1C#C[C@H]1O[C@H](CO)[C@@H](O)[C@H](O)[C@@H]1O [Compound 134, (2R,3S,4R,5S,6R)-2-(hydroxymethyl)-6-[2-[4-methoxy-5-[2-[(2R,3S,4R,5S,6R)-3,4,5-trihydroxy-6-(hydroxymethyl)tetrahydropyran-2-yl]ethynyl]-2-pyridyl]ethynyl]tetrahydropyran-3,4,5-triol] | 7.36 |
| CCCC1(O)c2cc(C#C[C@H]3O[C@H](CO)[C@@H](O)[C@H](O)[C@@H]3O)ccc2-c2ccc(C#C[C@H]3O[C@H](CO)[C@@H](O)[C@H](O)[C@@H]3O)cc21 [Compound 168, (2R,3S,4R,5S,6R)-2-(hydroxymethyl)-6-[2-[9-hydroxy-9-propyl-7-[2-[(2R,3S,4R,5S,6R)-3,4,5-trihydroxy-6-(hydroxymethyl)tetrahydropyran-2-yl]ethynyl]fluoren-2-yl]ethynyl]tetrahydropyran-3,4,5-triol] | 8.51 |
